Legend:
[1] = biological target: T1, Serine/threonine-protein kinase Nek2 (Homo sapiens, UniProt P51955)
T1 sequence (P51955 whole entry): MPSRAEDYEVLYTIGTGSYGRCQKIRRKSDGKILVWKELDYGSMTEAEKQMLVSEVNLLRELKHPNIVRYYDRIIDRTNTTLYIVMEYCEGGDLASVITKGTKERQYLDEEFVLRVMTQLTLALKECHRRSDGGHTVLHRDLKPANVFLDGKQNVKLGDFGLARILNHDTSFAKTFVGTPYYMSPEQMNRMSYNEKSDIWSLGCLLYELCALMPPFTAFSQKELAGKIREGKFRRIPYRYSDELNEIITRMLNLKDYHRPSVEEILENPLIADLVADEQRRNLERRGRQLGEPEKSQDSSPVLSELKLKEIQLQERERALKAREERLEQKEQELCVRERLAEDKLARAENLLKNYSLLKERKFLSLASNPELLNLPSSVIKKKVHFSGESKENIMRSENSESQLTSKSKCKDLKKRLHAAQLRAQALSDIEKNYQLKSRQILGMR
Description: Inhibition of NEK2 by microfluidic assay

[2] = biological target: T2, Serine/threonine-protein kinase Nek1 (Homo sapiens, UniProt Q96PY6); assay: Inhibition of NEK1 after 1 hr at room temperature by caliper method
T2 sequence (Q96PY6 whole entry): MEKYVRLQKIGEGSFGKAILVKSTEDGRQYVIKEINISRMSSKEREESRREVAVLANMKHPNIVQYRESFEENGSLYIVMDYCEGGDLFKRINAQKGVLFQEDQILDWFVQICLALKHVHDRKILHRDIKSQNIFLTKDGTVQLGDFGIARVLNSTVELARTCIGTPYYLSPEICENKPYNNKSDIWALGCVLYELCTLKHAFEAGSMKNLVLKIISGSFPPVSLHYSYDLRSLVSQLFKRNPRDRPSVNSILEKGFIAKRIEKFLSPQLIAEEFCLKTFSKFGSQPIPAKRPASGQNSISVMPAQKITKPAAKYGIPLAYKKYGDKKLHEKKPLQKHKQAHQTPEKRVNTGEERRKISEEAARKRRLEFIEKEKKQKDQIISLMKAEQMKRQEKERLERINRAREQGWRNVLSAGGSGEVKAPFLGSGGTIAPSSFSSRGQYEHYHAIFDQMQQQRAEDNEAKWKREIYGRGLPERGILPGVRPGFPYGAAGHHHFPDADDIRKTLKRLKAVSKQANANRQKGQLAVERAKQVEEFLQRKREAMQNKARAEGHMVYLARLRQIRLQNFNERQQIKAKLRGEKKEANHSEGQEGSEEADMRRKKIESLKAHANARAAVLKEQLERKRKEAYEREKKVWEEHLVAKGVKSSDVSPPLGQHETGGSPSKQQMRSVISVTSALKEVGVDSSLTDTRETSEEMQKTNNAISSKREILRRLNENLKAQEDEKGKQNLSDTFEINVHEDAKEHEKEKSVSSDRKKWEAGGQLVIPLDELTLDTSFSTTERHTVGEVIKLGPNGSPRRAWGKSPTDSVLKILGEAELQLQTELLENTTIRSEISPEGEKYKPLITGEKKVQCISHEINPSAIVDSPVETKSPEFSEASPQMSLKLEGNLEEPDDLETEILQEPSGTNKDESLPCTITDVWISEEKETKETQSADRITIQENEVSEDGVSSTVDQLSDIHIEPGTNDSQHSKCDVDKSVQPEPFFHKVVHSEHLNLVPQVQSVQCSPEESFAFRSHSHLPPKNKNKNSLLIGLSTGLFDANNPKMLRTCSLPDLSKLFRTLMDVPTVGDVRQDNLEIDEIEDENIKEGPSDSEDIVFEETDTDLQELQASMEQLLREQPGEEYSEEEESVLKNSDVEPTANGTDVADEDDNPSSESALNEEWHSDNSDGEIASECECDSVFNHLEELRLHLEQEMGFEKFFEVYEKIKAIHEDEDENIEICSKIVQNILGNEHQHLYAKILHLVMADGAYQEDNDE

[3] = biological target: T3, Serine/threonine-protein kinase Chk1 (Homo sapiens, UniProt O14757); assay: Inhibition of CHK1
T3 sequence (O14757 whole entry): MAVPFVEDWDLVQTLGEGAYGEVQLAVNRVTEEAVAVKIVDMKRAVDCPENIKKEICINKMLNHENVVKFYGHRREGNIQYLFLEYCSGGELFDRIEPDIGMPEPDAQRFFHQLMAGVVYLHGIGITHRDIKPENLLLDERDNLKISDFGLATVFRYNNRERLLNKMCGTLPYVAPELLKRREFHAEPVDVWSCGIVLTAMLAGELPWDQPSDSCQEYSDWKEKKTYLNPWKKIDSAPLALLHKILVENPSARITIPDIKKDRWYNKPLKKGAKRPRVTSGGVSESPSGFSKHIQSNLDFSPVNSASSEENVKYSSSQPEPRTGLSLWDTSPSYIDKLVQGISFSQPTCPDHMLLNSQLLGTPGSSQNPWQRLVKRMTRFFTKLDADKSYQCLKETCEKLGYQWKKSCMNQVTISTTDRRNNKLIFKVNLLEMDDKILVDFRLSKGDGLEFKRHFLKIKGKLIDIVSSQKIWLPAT

[4] = biological target: Serine/threonine-protein kinase PLK1 (Homo sapiens, UniProt P53350); assay: Inhibition of PLK1 after 75 mins at room temperature by caliper method
[5] = biological target: T1, Serine/threonine-protein kinase Nek2; remark: listed apart in the source
Description: Inhibition of NEK2 autophosphorylation after 2 hrs by DELFIA assay

[6] = biological target: T1, Serine/threonine-protein kinase Nek2; remark: listed apart in the source
Description: Inhibition of NEK2 assessed as inhibition of substrate phosphorylation

Sequence of Serine/threonine-protein kinase PLK1 (P53350 whole entry): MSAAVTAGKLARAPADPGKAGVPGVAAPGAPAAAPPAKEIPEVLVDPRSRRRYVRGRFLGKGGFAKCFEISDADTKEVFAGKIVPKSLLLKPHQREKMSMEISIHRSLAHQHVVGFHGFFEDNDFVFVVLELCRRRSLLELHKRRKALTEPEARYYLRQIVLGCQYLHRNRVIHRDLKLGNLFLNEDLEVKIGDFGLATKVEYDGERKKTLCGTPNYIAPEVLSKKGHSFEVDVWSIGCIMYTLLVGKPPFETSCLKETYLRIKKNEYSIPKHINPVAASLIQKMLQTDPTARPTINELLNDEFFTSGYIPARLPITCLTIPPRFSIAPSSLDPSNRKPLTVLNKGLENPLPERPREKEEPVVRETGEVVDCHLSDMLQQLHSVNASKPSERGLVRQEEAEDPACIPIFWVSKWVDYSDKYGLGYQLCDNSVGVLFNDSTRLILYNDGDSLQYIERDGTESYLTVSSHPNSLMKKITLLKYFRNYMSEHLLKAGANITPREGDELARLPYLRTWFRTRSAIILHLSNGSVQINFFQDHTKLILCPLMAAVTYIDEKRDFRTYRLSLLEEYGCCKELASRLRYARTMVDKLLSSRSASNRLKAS

Compound | IC50 [1] [µM] | further results
CC[C@H]1CN(c2nc(-c3cc(OC)c(OC)c(OC)c3)cnc2N)CC[C@@H]1C(=O)O (racemic) | 11.3 | –
COc1cc(-c2cnc(N)c(N3CCCCC3)n2)cc(OC)c1OC | > 50 | –
CC[C@@H]1C[C@H](C(=O)O)CCN1c1nc(-c2cc(OC)c(OC)c(OC)c2)cnc1N (racemic) | 1.4 | –
Nc1ncc(-c2sccc2C2CCCC2)nc1N1CCC(C(=O)O)CC1 | 3.4 | –
Nc1nccnc1N1CCC(C(=O)O)CC1 | 48.5 | –
CCC[C@@H]1C[C@H](C(=O)O)CCN1c1nc(-c2cc(OC)c(OC)c(OC)c2)cnc1N (racemic) | 5.4 | –
Nc1ncc(-c2ccsc2)nc1N1CCC(C(=O)O)CC1 | 7.2 | –
COc1cc(-c2cnc(N)c(N3CC[C@@H](C(=O)O)[C@@H](C)[C@H]3C)n2)cc(OC)c1OC | – | IC50 [2]: 0.17 µM; IC50 [3]: > 100 µM; IC50 [4]: 19.4 µM
COc1cc(-c2cnc(N)c(-c3ccc(C(=O)O)cc3C)n2)cc(OC)c1OC | > 50 | –
COc1cc(-c2cnc(N)c(N3CC[C@@H](C(=O)O)C[C@H]3C)n2)cc(OC)c1OC (racemic) | 1.2 | –
COc1cc(-c2cnc(N)c(N3CC[C@@H](C(=O)O)[C@@H](C4CC4)C3)n2)cc(OC)c1OC (racemic) | 38.3 | –
COc1ccc(-c2cnc(N)c(N3CCC(C(=O)O)CC3)n2)cc1OC | 1.9 | –
COc1cc(-c2cnc(N)c(N3CCC(C(=O)O)CC3)n2)cc(OC)c1OC | – | IC50 [2]: 2.6 µM; IC50 [3]: > 100 µM; IC50 [4]: 22.6 µM
CCC[C@H]1CN(c2nc(-c3cc(OC)c(OC)c(OC)c3)cnc2N)CC[C@H]1C(=O)O (racemic) | 11.2 | –
COc1cc(-c2cnc(N)c(N3CCC(C(N)=O)CC3)n2)cc(OC)c1OC | 5.7 | –
Nc1ncc(-c2ccccc2)nc1N1CCC(C(=O)O)CC1 | 7.8 | –
COc1cc(-c2cnc(N)c(N3CC[C@H](C(=O)O)[C@@H](C)C3)n2)cc(OC)c1OC (racemic) | 2.7 | –
COc1cc(-c2cnc(N)c(N3CC[C@@H](C(=O)O)[C@@H](C)C3)n2)cc(OC)c1OC (racemic) | 0.72 | –
Nc1ncc(-c2sccc2C2CC2)nc1N1CCC(C(=O)O)CC1 | 1.6 | –
COC(=O)C1CCN(c2nc(-c3cc(OC)c(OC)c(OC)c3)cnc2N)CC1 | 18.3 | –
Nc1ncc(-c2cccs2)nc1N1CCC(C(=O)O)CC1 | 4.3 | –
CCc1cc(-c2nc(-c3cc(OC)c(OC)c(OC)c3)cnc2N)ccc1C(=O)O | 26.2 | –
COc1cc(OC)cc(-c2cnc(N)c(N3CCC(C(=O)O)CC3)n2)c1 | 1.9 | –
COc1cc(-c2cnc(N)c(-c3ccc(C(=O)O)cc3)n2)cc(OC)c1OC | – | IC50 [5]: 0.71 µM; IC50 [6]: 1.6 µM
CCc1ccsc1-c1cnc(N)c(N2CCC(C(=O)O)CC2)n1 | 2.1 | IC50 [2]: 22.5 µM; IC50 [5]: 0.72 µM; IC50 [3]: > 100 µM; IC50 [6]: 1.9 µM; IC50 [4]: 8.5 µM
COc1cc(-c2cnc(N)c(N3CC[C@H](C(=O)O)[C@H](C)C3)n2)cc(OC)c1OC | 10.8 | –
COc1ccc(-c2cnc(N)c(N3CCC(C(=O)O)CC3)n2)cc1 | 19.8 | –
COc1cc(-c2cnc(N)c(N3CC[C@@H](C(=O)O)C[C@H]3C(C)C)n2)cc(OC)c1OC (racemic) | 5.9 | –
COc1cc(-c2cnc(N)c(N3CC[C@@H](C(=O)O)[C@@H](C)C3)n2)cc(OC)c1OC | 0.39 | –

Source: ChEMBL document CHEMBL1275342 (J Med Chem, 2010)
